From PubChem BioAssay AID179 (DTP/NCI, 2004) come the findings set out here.

What is called EC50 is the concentration needed to bring the measured effect to its halfway point. Usually IC50 stands for the concentration that inhibits the measured activity by half. Read a high IC50 as a need for much substance.

Each structure is given as a SMILES string. Several values for one entry are separate records, joined by “and”; a condition that tells them apart may be missing. Equal values may be shown once. Activity calls are given as the source filed them.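 How the source made its calls: active means compounds giving half or more protection of infected cells from virus-caused growth loss, again on retest; inactive means the rest.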 Where a SMILES comes first, the peptide text is derived from it. The star is where a group is joined. Bn = c1ccc(C*)cc1 Some results are limits rather than exact numbers.

The test system of the experiment is CEM cells HIV-1 protection, formazan growth assay. Briefly: NCI AIDS Antiviral Assay. The note with it: for IC50: measured here: growth of uninfected CEM cells. The method in brief: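 Steps: treat uninfected and HIV-1-infected human CEM cells at five drug levels; quantify growth by soluble formazan; retest any compound reaching 50% protection; classify actives from the retest.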

Turning to `CC(=O)c1ccc(C(=O)c2ccccc2C(=O)O)cc1`, the EC50 is over 200 µM and the IC50 was over 200 µM.

Take `CCOC(=O)c1c(NC(=S)Nc2ccc(Cl)cc2)sc2c1CCN(C)C2`: the EC50 was over 100 µM and the IC50 was over 100 µM.

As for `C/C(=N/OCCC(=O)O)C1CC1`, the EC50 was over 1450 µM and the IC50 was over 1450 µM.

On to `C/C(=N\NC(=S)NCCNC(=S)N/N=C(\C)c1ccccn1)c1ccccn1`, for which the EC50 is over 200 µM and the IC50 turned out to be 3.39 µM.

As for `CCN(CC)CCC(=O)OC1C(C)=CC(C)C(=O)CC(C(C)CC2CCC(O)C(OC)C2)OC(=O)C2CCCCN2C(=O)C(=O)[C@@]2(O)OC(CCC2C)CC(OC)\C(C)=C/C=C/C=C/C(C)CC(C)C(=O)C1OC` (some centres undefined), the EC50 was over 200 µM and the concentration for half-maximal inhibition (IC50) was 9.12 µM.

Turning to `COC1(C)C(=O)N2C1N(C(=O)OCc1ccccc1)CC2(C)C` (centres undefined), the EC50 was over 251 µM and the IC50 is over 251 µM.

With `Cc1cc(S(=O)(=O)Nc2nnc3ccccn23)c(S)cc1Cl`, the EC50 was 102 µM and the IC50 came out at 380 µM.

As for `Cc1ccc(C(=O)CC(O)(C(F)(F)F)C(F)(F)F)cc1[N+](=O)[O-]`, the EC50 is over 200 µM and the 50% inhibitory concentration (IC50) was found to be 6.61 µM.

`COc1ccc(Oc2c(OC)cc(NCCCCCN3C(=O)c4ccccc4C3=O)c3ncccc23)cc1`: the EC50 was over 100 µM and the IC50 is over 100 µM.

Regarding `CCC[CH2][Sn]1([CH2]CCC)[O]N=C(c2ccccc2)C(c2ccccc2)[O]1` (centres undefined), the EC50 was over 19.5 µM and the IC50 was determined as 2.45 µM.

For the molecule `COc1ccc(C2COc3c(ccc(OC)c3OC)C2=O)cc1OC` (centres undefined), the result was inactive.

Regarding `N#Cc1c(-c2ccccc2)c(C#N)c(=S)n(C2OCC(O)C(O)C2O)c1N` (centres undefined), the EC50 is over 200 µM; the IC50 was 195 µM and > 200 µM.

Turning to `COc1cc2c(cc1OC)[C@H]1C(COC(=O)c3ccccc3)CSC(=Nc3ccccc3)N1CC2` (some centres undefined), the EC50 is over 10.2 µM and the IC50 was over 10.2 µM.

As for `[N-]=[N+]=CC(=O)C1(C(=O)C=[N+]=[N-])CC1`, the EC50 is over 251 µM and the IC50 was found to be 240 µM.

Regarding `CCOC(=O)C(C)Sc1nnc(COc2ccccc2OC)n1-c1ccccc1` (centres undefined), the EC50 is over 200 µM and the IC50 worked out at 162 µM.

`CCN(CC)CCOc1ccc2c(c1)C(=O)c1cc(OCCN(CC)CC)ccc1-2`: the EC50 was over 200 µM and the IC50 stood at 12.3 µM.

Consider `Cc1ccc(N2C(=O)/C(=C3\Sc4c(nc(C)n(C)c4=O)N3c3ccccc3)SC2=S)cc1`, for which the EC50 was over 3.02 µM and the IC50 is over 3.02 µM.

`CCOP(=O)(OCC)/C(C#N)=C\c1ccc(OC(C)=O)cc1`: the EC50 is over 562 µM and the IC50 is over 562 µM.

Take `O=C(Nc1ccc(Cl)cc1)Nc1cccc2nsnc12`: the EC50 is over 32.4 µM and the IC50 stood at 20.4 µM.

In the case of `O=C(/C=C/C(=O)N1CCCC1)N1CCCC1`, the EC50 was over 200 µM and the IC50 was over 200 µM.

`CC(O)(P(=O)(O)O)P(=O)(O)O.[NH-]CC[NH-].[NH-]CC[NH-].[Pd+2].[Pd+2]`: the EC50 is over 200 µM and the IC50 came to 87.1 µM.

Regarding `CC1(C)CN(C(=O)OCc2ccccc2)[C@@H]2N1C(=O)[C@@]2(C)OCCCO[C@]1(C)C(=O)N2[C@H]1N(C(=O)OCc1ccccc1)CC2(C)C`, the EC50 was over 200 µM and the IC50 was over 200 µM.

`NC(=N\N=C/c1ccc(Cl)c(Cl)c1)/C(N)=N\N=C/c1ccc(Cl)c(Cl)c1`: the outcome was inactive.

With `COC(=O)c1c(C#C[Si](C)(C)C)c(C#C[Si](C)(C)C)c(C#C[Si](C)(C)C)c(C#C[Si](C)(C)C)c1C(=O)OC`, the EC50 is over 50.1 µM and the IC50 is over 50.1 µM.

On to `C[N+]1(C)CCCC1C(=O)[O-]` (centres undefined), for which the EC50 was over 1740 µM and the IC50 is over 1740 µM.

On to `COC(=O)[C@H](Cc1ccccc1)NC(=O)N(CCC#N)CCCCN(CCC#N)C(=O)N[C@@H](Cc1ccccc1)C(=O)OC`, for which the EC50 was over 200 µM and the IC50 was found to be 115 µM.

For `COC(=O)C(Cc1cn(C(C)n2cc(CC(NC(C)=O)C(=O)OC)c3ccccc32)c2ccccc12)NC(C)=O` (centres undefined), the EC50 is over 81.3 µM and the IC50 was found to be 74.1 µM.

Take `CC1(C)CNC[C@@]2(C)OCCOCCOCCO[C@@]3(C)CNCC(C)(C)NC(=O)[C@](C)(CNCC(C)(C)NC3=O)OCCOCCOCCO[C@](C)(CNCC(C)(C)NC2=O)C(=O)N1`: the EC50 was over 200 µM and the IC50 is over 200 µM.

Consider `C[C@]12CCNC(=O)C=C1CC[C@@H]1C2CC[C@@]2(C)C1CC[C@@H]2O` (some centres undefined), for which the outcome was inactive.

As for `COc1ccc2nc3ccccc3c(NCCCN(C)C)c2c1[N+](=O)[O-]`, the EC50 was over 200 µM and the IC50 amounted to 0.589 µM.

For `COCC12CCC(OC)C34C5CC6(O)C(OC)CC(OC(C)=O)(C5C6OC(=O)c5ccccc5)C(C(OC)C13)C4N(C)C2` (centres undefined), the outcome was inactive.

With `Cc1ccc(S(=O)(=O)OC2=C/C(=N\c3onc(C)c3C)c3ccccc3C2=O)cc1`, the EC50 was over 200 µM and the IC50 was 3.09 µM.

As to `Cc1c(NC(=O)Nc2ccc(F)cc2)c(=O)n(-c2ccccc2)n1C`, the EC50 is over 200 µM and the IC50 is over 200 µM.

As to `Cc1cc2nc(=O)cc(CCl)n2c(=O)n1C(=O)C(O)C(O)C(O)CO` (centres undefined), the outcome was inactive.

Take `COc1ccc(Nc2cc[nH]c(=O)c2NC(C)=O)cc1`: the EC50 was over 479 µM and the IC50 was over 479 µM.

As for `CC(=O)Nc1ccc(NC(=O)c2cccc3c(Nc4ccc(S(=O)(=O)Nc5cc(C)on5)cc4)c4ccccc4nc23)cc1`, the EC50 was over 200 µM and the IC50 was 23.4 µM.

`O=C(c1ccccc1)C(c1ccccc1)C1(O)C(=O)Nc2ccc(Br)cc21` (centres undefined): the EC50 was over 85.1 µM and the 50% inhibitory concentration (IC50) was over 85.1 µM.

In the case of `Cc1cn(C2C=CC(CO)(C(F)(F)F)O2)c(=O)[nH]c1=O` (centres undefined), the EC50 is over 200 µM and the IC50 is over 200 µM.

On to `COc1ccc(C2=Nc3ccccc3N=C(SC)C2)cc1`, for which the EC50 was 2.4 µM and the IC50 was determined as 17.8 µM.

`O=C(CC1(O)C(=O)Nc2c(Cl)cccc21)c1ccccc1` (centres undefined): the EC50 was over 832 µM and the IC50 came out at 158 µM.

Take `O=C(/C=C(\O)C(=O)O)/C=C(\O)c1ccccc1Cl`: the EC50 is 389 µM and the IC50 was found to be 589 µM.

As to `CN1C(=O)CC2(C)C1=CCc1scnc12` (centres undefined), the EC50 is over 200 µM and the IC50 was over 200 µM.

In the case of `Cc1cc(N(CCC#N)CCC#N)ccc1/C=C1N=C(/C=C\c2ccccc2)N(c2ccc(Cl)cc2)C\1=O`, the outcome was inactive.

Consider `CC12CCC3(C1)[C@H](CC2=O)C[C@@H](OC(=O)c1ccccc1)C1C(C)(CO)CCC[C@@]13C` (some centres undefined), for which the EC50 was over 44.7 µM and the IC50 turned out to be 0.891 µM.

`COc1ccc(C)cc1-c1cc(Sc2ccccc2)c(-c2cc(C)ccc2OC)o1`: the EC50 is over 53.7 µM and the IC50 was over 53.7 µM.

For `COC(=O)C(=O)C(C(C)=O)C(=O)NCc1ccccc1` (centres undefined), the EC50 is 47.9 µM and the IC50 came to 67.6 µM.

On to `CC(C)CCCC(C)[C@H]1CC[C@H]2[C@@H]3CC[C@H]4C[C@@H](CCC=C(c5cc(Cl)c(OCC(=O)O)c(C(=O)O)c5)c5cc(Cl)c(OCC(=O)O)c(C(=O)O)c5)CC[C@]4(C)[C@H]3CC[C@]12C` (some centres undefined), for which the EC50 is 91.2 µM and the IC50 was over 100 µM.

Consider `CC1(O)C(O)C(O)C1(O)CO` (centres undefined) (tested in a mixture with another compound), for which the EC50 was over 200 µM and the 50% inhibitory concentration (IC50) was over 200 µM.

As for `O=C1[C@H]2CCCC[C@H]2C(=O)N1N1C(=O)[C@H]2CCCC[C@H]2C1=O`, the result was inactive.

As to `CC(C(=O)OCc1ccccc1)(c1ccco1)N1C(=O)OC(c2ccccc2)C1c1ccccc1` (centres undefined), the EC50 is over 200 µM and the IC50 worked out at 13.5 µM.

Consider `CNc1nncc2[nH]cnc12`, for which the EC50 was over 200 µM and the IC50 was over 200 µM.

Take `CC(C)C1CCC2(C)CC3C(CO)CC(O)C3C(C)(O)C/C=C/12` (centres undefined): the result was inactive.

As to `CC1CN=C(CCc2ccc(NC(=O)c3ccc(C(=O)Nc4ccc(CCC5=NCC(C)N5)cc4)cc3)cc2)N1` (centres undefined), the EC50 was over 200 µM and the IC50 worked out at 45.7 µM.

`Cc1cc(Br)cc(C)c1NC(=O)C(=O)C1C(=O)C(CC2C(=O)c3ccccc3C2=O)C(=O)CC1(C)C` (centres undefined): the EC50 is over 18.2 µM and the half-inhibitory concentration (IC50) is over 18.2 µM.

On to `Cc1cccc(N2C(=O)C3c4[nH]c5ccccc5c4C4CCC(C(C)(C)C)CC4C3C2=O)c1C` (centres undefined), for which the EC50 was over 200 µM and the half-maximal inhibitory concentration (IC50) was 22.9 µM.

As for `CC1CNC(=S)SSC(=S)N1` (centres undefined), the EC50 is over 200 µM and the half-maximal inhibitory concentration (IC50) was 25.1 µM.

Turning to `Cc1cc(=O)c2ccccc2o1`, the result was inactive.

`COc1ccc(NCC/C=C\[Si](C)(C)C)cc1`: the outcome was inactive.

As to `c1nncn1C12C3C4C5C3C1C5C42` (centres undefined), the EC50 was over 200 µM and the IC50 was over 200 µM.

Take `Cc1nnn[n-]1.N.N.N.N.N.[Cl-].[Co+3]`: the EC50 is over 832 µM and the IC50 is over 832 µM.

As to `O=C1CSC(=Nc2ccccc2)N1c1ncccn1`, the EC50 was over 47.9 µM and the IC50 was over 47.9 µM.

In the case of `CNC(=O)C(CC(C)C)NC(=O)CNC(=O)C(Cc1ccc(OCc2ccccc2)cc1)NC(=O)C(COCc1ccccc1)NC(C)=O` (centres undefined) (Ac-S(Bn)Y(Bn)GL-NHMe; configuration not given here), the EC50 is over 200 µM and the IC50 is 37.2 µM.

For the molecule `COc1cc(O)c2c(=O)c3c(OC)c(O)ccc3oc2c1`, the EC50 was over 200 µM and the IC50 amounted to 56.2 µM.

For the molecule `O=C1c2c(c3c4ccccc4[nH]c3c3[nH]c4ccccc4c23)C(=O)N1Cc1ccccc1`, the EC50 was over 148 µM and the IC50 was 10.2 µM.

As to `Cc1ccc(NC(=O)c2cc3c(cc2Cl)Sc2nccn2S3(=O)=O)cc1`, the EC50 is over 200 µM and the half-maximal inhibitory concentration (IC50) came out at 61.7 µM.

For `CC1C(c2ccccc2)SC(=N)N1C` (centres undefined), the EC50 is over 417 µM and the IC50 was 257 µM.

Take `CN(C)[C@@H]1C(=O)C(C(=O)NCNc2cccc(C(=O)O)c2C(=O)O)=C(O)[C@@]2(O)C(=O)C3=C(O)c4c(O)cccc4[C@@](C)(O)[C@H]3C[C@@H]12`: the EC50 was over 5.89 µM and the IC50 was over 5.89 µM.
